Results from US6384058B1, “2,4,6-trisubstituted pryridines with estrogenic activity and methods for the solid phase synthesis thereof” (American Home Products Corporation, priority 1997, dated 2002).

Key:
human estrogen receptor = target: T1, human estrogen receptor (Homo sapiens, UniProt P03372); assay: Estrogen Receptor Assay: 2×VIT ERE Transfection Assay (luciferase reporter in CHO cells); assay type: cell-based; conditions: 1 μM compound alone, 24 h, CHO cells stably transfected with human estrogen receptor, luciferase normalised to B-galactosidase, n=8
T1 construct: expressed in transfected cells; host or cells: Chinese Hamster Ovary (CHO) cells, stably transfected
T1 sequence (P03372 1-595): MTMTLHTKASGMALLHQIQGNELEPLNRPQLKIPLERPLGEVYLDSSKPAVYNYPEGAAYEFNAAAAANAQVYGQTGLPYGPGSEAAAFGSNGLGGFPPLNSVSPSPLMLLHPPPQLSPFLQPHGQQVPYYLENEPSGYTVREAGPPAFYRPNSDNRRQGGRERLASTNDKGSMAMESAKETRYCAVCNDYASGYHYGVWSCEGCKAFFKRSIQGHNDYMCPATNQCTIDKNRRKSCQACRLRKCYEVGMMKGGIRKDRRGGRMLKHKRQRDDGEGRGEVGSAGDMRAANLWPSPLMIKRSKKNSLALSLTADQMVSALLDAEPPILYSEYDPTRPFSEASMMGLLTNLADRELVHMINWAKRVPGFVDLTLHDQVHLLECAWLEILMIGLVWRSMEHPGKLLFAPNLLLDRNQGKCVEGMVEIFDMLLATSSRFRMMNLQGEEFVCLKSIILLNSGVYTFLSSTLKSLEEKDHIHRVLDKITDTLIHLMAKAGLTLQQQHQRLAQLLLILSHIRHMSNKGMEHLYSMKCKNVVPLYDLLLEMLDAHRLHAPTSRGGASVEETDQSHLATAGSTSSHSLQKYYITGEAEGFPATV
Protocol: Enhancement of luciferase gene expression in this model is dependent upon estrogen receptor (ER) interaction with a vitellogenin gene estrogen responsive element (ERE) capable of enhancing basal promoter activity. This is a sensitive and rapid methodology to assess estrogenic/antiestrogenic potency of compounds.
48 h prior to treatment the growth medium is replaced with DMEM lacking phenol red+10% dextran coated charcoal stripped FBS (treatment medium). Cells are plated at a density of 5000 cells/well in 96-well plates containing 200 μL of medium/well.
Calcium Phosphate Transfection: Reporter DNA (Promega plasmid pGL2 containing two tandem copies of the vitellogenin ERE in front of the minimal thymidine kinase promoter driving the luciferase gene) is combined with the B-galactosidase expression plasmid pCH110 (Pharmacia) and carrier DNA (pTZ18U) in the following ratio: 10 μg of reporter DNA, 5 μg of pCH110 DNA, 5 μg of pTZ18U, and 20 μg of DNA/1 mL of transfection solution. […] 20 μL of this mixture is added to each well of cells and remains on the cells for 16 h. […] Each treatment condition is performed on 8 wells (n=8) which are incubated for 24 h prior to luciferase assay.
Luciferase Assay: After 24 h exposure to compounds, the media is removed and each well is washed 2× with 125 μL of PBS lacking Mg++ and Ca++. After removing the PBS, 25 μL of Promega lysis buffer is added to each well and allowed to stand at room temperature for 15 min, followed by 15 min at −80 deg. C. and 15 min at 37 deg. C. 20 μL of lysate is tranferred to an opaque 96-well plate for luciferase activity evaluation and the remaining lysate (5 μL) is used for B-galactosidase activity evaluation (normalize transfection). The luciferan substrate (Promega) added is 100 μL aliquots to each well automatically by the luminometer and the light produced (relative light units) is read 10 seconds after addition. The data is logged and automatically sent to a JMP statistical program for analysis. A hard copy printout is also produced at the time of the assay.
B-galactosidase Assay: To the remaining 5 μL of lysate 45 μL of PBS is added. 50 μl of Promega B-galactosidase 2×assay buffer is added, mixed well and incubated at 37 deg. C. for 1 h. A plate containing a standard curve (0.1 to 1.5 milliunits in triplicate) is set up for each experimental run. The plates are analyzed on a Molecular Devices spectrophotometric plate reader at 410 nm. The optical densities for the unknowns are converted to milliunits of activity by mathematical extrapolation from the standard curve. Analysis of Results: The luciferase data is generated as relative light units (RLUs) accumulated during a 10 second measurement and is automatically transferred to a JMP (SAS Inc) file where background RLUs are subtracted. The B-galactosidase values are automatically imported into the file and these values are divided into the RLUs to normalize the data. The mean and standard deviation is determined from a n=8 for each treatment.

Row | Structure (SMILES) | Estrogenic activity at 1 μM (% of activity of 1 nM 17B-estradiol) (human estrogen receptor) | melting point
1 | Oc1ccccc1-c1cc(-c2ccc(F)c(F)c2)cc(-c2ccc(Cl)cc2)n1 [Example 1, 2-[6-(4-Chloro-phenyl)-4-(3,4-difluoro-phenyl)-pyridin-2-yl]-phenol] | 14% | 146 to 148 °C
2 | Oc1ccccc1-c1cc(-c2ccc(F)c(F)c2)cc(-c2ccc3ccccc3c2)n1 [Example 2, 2-[4-(3,4-Difluoro-phenyl)-6-naphthalen-2-yl-pyridin-2-yl]-phenol] |  | 165 to 167 °C
3 | Oc1ccccc1-c1cc(-c2ccc(F)c(F)c2)cc(-c2ccco2)n1 [Example 3, 2-[4-(3,4-Difluoro-phenyl)-6-furan-2-yl-pyridin-2-yl]-phenol] | 10% | 147 to 148 °C
4 | Oc1ccccc1-c1cc(-c2ccc3c(c2)OCO3)cc(-c2ccc3ccccc3c2)n1 [Example 4, 2-(4-Benzo[1,3]dioxol-5-yl-6-naphthalen-2-yl-pyridin-2-yl)-phenol] | 22% | 195 to 196 °C
5 | Oc1ccccc1-c1cc(-c2ccc3c(c2)OCO3)cc(-c2ccsc2)n1 [Example 5, 2-(4-Benzo[1,3]dioxol-5-yl-6-thiophen-3-yl-pyridin-2-yl)-phenol] |  | 120 to 121 °C
6 | Oc1ccc(F)cc1-c1cc(-c2ccc(-c3ccccc3)cc2)cc(-c2ccc3ccccc3c2)n1 [Example 6, 2-(4-Biphenyl-4-yl-6-naphthalen-2-yl-pyridin-2-yl)-4-fluoro-phenol] |  | 187 to 188 °C
7 | Oc1ccc(F)cc1-c1cc(-c2ccc(-c3ccccc3)cc2)cc(-c2ccncc2)n1 [Example 7, 2-(4-Biphenyl-4-yl-[2,4′]bipyridinyl-6-yl)-4-fluoro-phenol] | 6% | 
8 | Oc1cccc(-c2cc(-c3ccc(-c4ccccc4)cc3)cc(-c3ccc4ccccc4c3)n2)c1 [Example 9, 3-(4-Biphenyl-4-yl-6-naphthalen-2-yl-pyridin-2-yl)-phenol] |  | 174 to 175 °C
9 | Oc1cccc(-c2cc(C3CCCCC3)cc(-c3ccco3)n2)c1 [Example 10, 3-(4-Cyclohexyl-6-furan-2-yl-pyridin-2-yl)-phenol] | 36% | 
